Measurements from ChEMBL document CHEMBL1671722, “Comparative in vitro activity profiles of novel bis-indole antibacterials against gram-positive and gram-negative clinical isolates” (Antimicrob Agents Chemother, 2010).

Legend:
Staphylococcus aureus [1] = assay: Antimicrobial activity against methicillin-resistant Staphylococcus aureus by broth microdilution method; assay type: functional
Clostridioides difficile = assay: Antimicrobial activity against Clostridium difficile by broth microdilution method; assay type: functional
Acinetobacter baumannii [2] = assay: Antimicrobial activity against multiple dug-resistant Acinetobacter baumannii by broth microdilution method; assay type: functional
Streptococcus pneumoniae [3] = assay: Antimicrobial activity against penicillin-susceptible Streptococcus pneumoniae by broth microdilution method; assay type: functional
Proteus mirabilis = assay: Antimicrobial activity against Proteus mirabilis by broth microdilution method; assay type: functional
[4] = Cytotoxicity against HeLa cells after 3 days by MTS assay; assay type: cell-based; conditions: human
[5] = tested on: Staphylococcus epidermidis; assay: Antimicrobial activity against methicillin-susceptible Staphylococcus epidermidis by broth microdilution method; assay type: functional
Streptococcus pneumoniae [6] = assay: Antimicrobial activity against penicillin-intermediate Streptococcus pneumoniae by broth microdilution method; assay type: functional
Streptococcus pneumoniae [7] = assay: Antimicrobial activity against penicillin-resistant Streptococcus pneumoniae by broth microdilution method; assay type: functional
Acinetobacter baumannii [8] = assay: Antimicrobial activity against Acinetobacter baumannii by broth microdilution method; assay type: functional
Escherichia coli = assay: Antimicrobial activity against Escherichia coli by broth microdilution method; assay type: functional
Klebsiella pneumoniae [9] = assay: Antimicrobial activity against ESBL-production Klebsiella pneumoniae by broth microdilution method; assay type: functional
[10] = tested on: Staphylococcus epidermidis; assay: Antimicrobial activity against methicillin-resistant Staphylococcus epidermidis by broth microdilution method; assay type: functional
Enterococcus faecium [11] = assay: Antimicrobial activity against vancomycin-resistant Enterococcus faecium by broth microdilution method; assay type: functional
Burkholderia cepacia = assay: Antimicrobial activity against Burkholderia cepacia by broth microdilution method; assay type: functional
Serratia marcescens = assay: Antimicrobial activity against Serratia marcescens by broth microdilution method; assay type: functional
Pseudomonas aeruginosa = assay: Antimicrobial activity against Pseudomonas aeruginosa by broth microdilution method; assay type: functional
Enterococcus faecalis [12] = assay: Antimicrobial activity against vancomycin-resistant Enterococcus faecalis by broth microdilution method; assay type: functional
Staphylococcus aureus [13] = assay: Antimicrobial activity against methicillin-susceptible Staphylococcus aureus by broth microdilution method; assay type: functional
Klebsiella pneumoniae [14] = assay: Antimicrobial activity against Klebsiella pneumoniae by broth microdilution method; assay type: functional
Streptococcus agalactiae = assay: Antimicrobial activity against Streptococcus agalactiae by broth microdilution method; assay type: functional
Enterococcus faecium [15] = assay: Antimicrobial activity against vancomycin-susceptible Enterococcus faecium by broth microdilution method; assay type: functional
Enterococcus faecalis [16] = assay: Antimicrobial activity against vancomycin-susceptible Enterococcus faecalis by broth microdilution method; assay type: functional
Haemophilus influenzae = assay: Antimicrobial activity against Haemophilus influenzae by broth microdilution method; assay type: functional
[17] = Protein binding to serum; assay type: ADME, cell-free; conditions: read-out: PB (converted)

c1cc2cc(-c3ccc(-c4cc5ccc(C6=NCCCN6)cc5[nH]4)cc3)[nH]c2cc1C1=NCCCN1
0.5 mg/L: MIC50 (Acinetobacter baumannii [8]) | MIC90 (Klebsiella pneumoniae [9]) | MIC90 (Staphylococcus aureus [13]) | MIC90 (Klebsiella pneumoniae [14])
0.03 mg/L: MIC50 (Streptococcus pneumoniae [3]) | MIC90 (Streptococcus pneumoniae [3]) | MIC50 [5] | MIC50 (Streptococcus pneumoniae [6]) | MIC90 (Streptococcus pneumoniae [6]) | MIC50 (Streptococcus pneumoniae [7]) | MIC90 (Enterococcus faecalis [12]) | MIC (Streptococcus agalactiae) | MIC50 (Streptococcus agalactiae) | MIC90 (Streptococcus agalactiae)
4 mg/L: MIC90 (Acinetobacter baumannii [2]) | CC50 at 72 h [4] | MIC90 (Acinetobacter baumannii [8]) | MIC90 (Haemophilus influenzae)
2 mg/L: MIC50 (Acinetobacter baumannii [2]) | MIC90 (Proteus mirabilis)
0.12 mg/L: MIC90 (Staphylococcus aureus [1]) | MIC90 (Clostridioides difficile) | MIC50 (Escherichia coli) | MIC50 (Klebsiella pneumoniae [9]) | MIC90 (Burkholderia cepacia) | MIC (Serratia marcescens) | MIC50 (Serratia marcescens) | MIC50 (Staphylococcus aureus [13])
0.25 mg/L: MIC90 (Escherichia coli) | MIC90 (Serratia marcescens) | MIC50 (Pseudomonas aeruginosa) | MIC50 (Klebsiella pneumoniae [14])
0.06 mg/L: MIC50 (Staphylococcus aureus [1]) | MIC50 (Clostridioides difficile) | MIC90 [5] | MIC90 (Streptococcus pneumoniae [7]) | MIC90 [10] | MIC50 (Burkholderia cepacia) | MIC50 (Enterococcus faecalis [16]) | MIC90 (Enterococcus faecalis [16])
0.004 mg/L: MIC (Enterococcus faecium [11]) | MIC50 (Enterococcus faecium [11]) | MIC90 (Enterococcus faecium [11]) | MIC50 (Enterococcus faecium [15])
0.015 mg/L: MIC50 [10] | MIC50 (Enterococcus faecalis [12]) | MIC90 (Enterococcus faecium [15])
1 mg/L: MIC50 (Proteus mirabilis) | MIC90 (Pseudomonas aeruginosa) | MIC50 (Haemophilus influenzae)

c1cc2cc(-c3ccc(-c4cc5ccc(C6=NCCN6)cc5[nH]4)cc3)[nH]c2cc1C1=NCCN1
≤ 0.015 mg/L: MIC (Burkholderia cepacia) | MIC50 (Burkholderia cepacia)
> 16 mg/L: MIC50 (Acinetobacter baumannii [2]) | MIC50 (Proteus mirabilis) | MIC90 (Proteus mirabilis) | MIC90 (Acinetobacter baumannii [8]) | MIC90 (Klebsiella pneumoniae [9]) | MIC50 (Pseudomonas aeruginosa) | MIC90 (Pseudomonas aeruginosa) | MIC90 (Haemophilus influenzae)
1 mg/L: MIC50 (Klebsiella pneumoniae [9]) | MIC50 (Serratia marcescens)
0.015 mg/L: MIC50 (Streptococcus pneumoniae [3]) | MIC50 (Streptococcus pneumoniae [6]) | MIC50 [10] | MIC90 (Enterococcus faecium [15])
0.75: fraction unbound [17]
4 mg/L: MIC50 (Haemophilus influenzae)
0.25 mg/L: MIC90 (Staphylococcus aureus [13])
0.008 mg/L: MIC50 [5]
8 mg/L: MIC50 (Acinetobacter baumannii [8]) | MIC90 (Klebsiella pneumoniae [14])
0.06 mg/L: MIC (Staphylococcus aureus [1]) | MIC50 (Staphylococcus aureus [1]) | MIC50 (Clostridioides difficile) | MIC90 (Streptococcus pneumoniae [7]) | MIC90 (Burkholderia cepacia) | MIC90 (Enterococcus faecalis [12]) | MIC50 (Enterococcus faecalis [16]) | MIC90 (Enterococcus faecalis [16])
0.03 mg/L: MIC90 (Streptococcus pneumoniae [3]) | MIC90 [5] | MIC (Streptococcus pneumoniae [7]) | MIC50 (Streptococcus pneumoniae [7]) | MIC90 [10] | MIC50 (Enterococcus faecalis [12]) | MIC (Streptococcus agalactiae) | MIC50 (Streptococcus agalactiae) | MIC90 (Streptococcus agalactiae)
0.5 mg/L: MIC90 (Escherichia coli)
33 mg/L: CC50 at 72 h [4]
0.12 mg/L: MIC90 (Staphylococcus aureus [1]) | MIC90 (Clostridioides difficile) | MIC90 (Streptococcus pneumoniae [6]) | MIC50 (Escherichia coli) | MIC50 (Staphylococcus aureus [13])
0.004 mg/L: MIC50 (Enterococcus faecium [11]) | MIC90 (Enterococcus faecium [11]) | MIC50 (Enterococcus faecium [15])
2 mg/L: MIC90 (Serratia marcescens) | MIC50 (Klebsiella pneumoniae [14])
